Laboratory results from ChEMBL document CHEMBL6114980, “Single or double lipid-modified ultra-short antimicrobial peptides for treating infections caused by resistant bacteria” (Eur J Med Chem, 2025).
≈ marks a conversion by molar mass, not a printed value. Calls of active or inactive are those of the source. The rule behind the calls is not given here. Peptide text beside a SMILES is read from it. * marks the point of attachment. Myristoyl = CCCCCCCCCCCCCC(=O)*; Lauroyl = CCCCCCCCCCCC(=O)*; Octanoyl = CCCCCCCC(=O)*

Key:
Enterococcus faecalis = test: Antibacterial activity against Enterococcus faecalis ATCC 29212 assessed as reduction in bacterial growth incubated for 18 to 24 hrs by broth microdilution method; assay type: functional; conditions: time 18-24 hrs
Klebsiella pneumoniae = test: Antibacterial activity against Klebsiella pneumoniae ATCC 700603 assessed as reduction in bacterial growth incubated for 18 to 24 hrs by broth microdilution method; assay type: functional; conditions: time 18-24 hrs
Bacillus subtilis = test: Antibacterial activity against Bacillus subtilis ATCC 23857 assessed as reduction in bacterial growth incubated for 18 to 24 hrs by broth microdilution method; assay type: functional; conditions: time 18-24 hrs
Staphylococcus aureus [1] = test: Antibacterial activity against Staphylococcus aureus ATCC 25923 assessed as reduction in bacterial growth incubated for 18 to 24 hrs by broth microdilution method; assay type: functional; conditions: time 18-24 hrs
[2] = tested on: Staphylococcus epidermidis; test: Antibacterial activity against Staphylococcus epidermidis ATCC 12228 assessed as reduction in bacterial growth incubated for 18 to 24 hrs by broth microdilution method; assay type: functional; conditions: time 18-24 hrs
Acinetobacter baumannii [3] = test: Antibacterial activity against Acinetobacter baumannii ATCC 19606 assessed as reduction in bacterial growth incubated for 18 to 24 hrs by broth microdilution method; assay type: functional; conditions: time 18-24 hrs
Pseudomonas aeruginosa [4] = test: Antibacterial activity against Pseudomonas aeruginosa ATCC 27853 assessed as reduction in bacterial growth incubated for 18 to 24 hrs by broth microdilution method; assay type: functional; conditions: time 18-24 hrs
Escherichia coli [5] = test: Antibacterial activity against Escherichia coli ATCC 25922 assessed as reduction in bacterial growth incubated for 18 to 24 hrs by broth microdilution method; assay type: functional; conditions: time 18-24 hrs
Cell membrane [6] = test: Induction of cytoplasmic membrane depolarization in Escherichia coli assessed as increase in fluorescence intensity at 0.5 to 2 times MIC measured for 10 mins by DiSC3-5 dye based fluorescence assay
Cell membrane [7] = test: Induction of cytoplasmic membrane depolarization in Staphylococcus aureus assessed as increase in fluorescence intensity at 0.5 to 4 times MIC measured for 1 mins by DiSC3-5 dye based fluorescence assay
Pseudomonas aeruginosa [8] = test: Antibacterial activity against Pseudomonas aeruginosa 6434N assessed as reduction in bacterial growth incubated for 18 to 24 hrs by broth microdilution method; assay type: functional; conditions: time 18-24 hrs
Staphylococcus aureus [9] = test: Antibacterial activity against Staphylococcus aureus 125 assessed as reduction in bacterial growth incubated for 18 to 24 hrs by broth microdilution method; assay type: functional; conditions: time 18-24 hrs
Acinetobacter baumannii [10] = test: Antibacterial activity against Acinetobacter baumannii 5444 assessed as reduction in bacterial growth incubated for 18 to 24 hrs by broth microdilution method; assay type: functional; conditions: time 18-24 hrs
Escherichia coli [11] = test: Antibacterial activity against Escherichia coli 850 assessed as reduction in bacterial growth incubated for 18 to 24 hrs by broth microdilution method; assay type: functional; conditions: time 18-24 hrs
Escherichia coli [12] = test: Antibacterial activity against Escherichia coli 780 assessed as reduction in bacterial growth incubated for 18 to 24 hrs by broth microdilution method; assay type: functional; conditions: time 18-24 hrs
Staphylococcus aureus [13] = test: Antibacterial activity against Staphylococcus aureus 794 assessed as reduction in bacterial growth incubated for 18 to 24 hrs by broth microdilution method; assay type: functional; conditions: time 18-24 hrs
Staphylococcus aureus [14] = test: Antibacterial activity against methicillin-resistant Staphylococcus aureus 75 assessed as reduction in bacterial growth incubated for 18 to 24 hrs by broth microdilution method; assay type: functional; conditions: time 18-24 hrs
Staphylococcus aureus [15] = test: Antibacterial activity against methicillin-resistant Staphylococcus aureus ATCC 33591 assessed as reduction in bacterial growth incubated for 18 to 24 hrs by broth microdilution method; assay type: functional; conditions: time 18-24 hrs
Staphylococcus aureus [16] = test: Antibacterial activity against Staphylococcus aureus 113 assessed as reduction in bacterial growth incubated for 18 to 24 hrs by broth microdilution method; assay type: functional; conditions: time 18-24 hrs
Acinetobacter baumannii [17] = test: Antibacterial activity against Acinetobacter baumannii 92359 assessed as reduction in bacterial growth incubated for 18 to 24 hrs by broth microdilution method; assay type: functional; conditions: time 18-24 hrs
Pseudomonas aeruginosa [18] = test: Antibacterial activity against Pseudomonas aeruginosa 124 assessed as reduction in bacterial growth incubated for 18 to 24 hrs by broth microdilution method; assay type: functional; conditions: time 18-24 hrs
Staphylococcus aureus [19] = test: Antibacterial activity against methicillin resistant Staphylococcus aureus infected in male BALB/c mouse model of skin wound infection assessed as reduction in wound area at 2 mg/kg, ip measured after 10 days post infection relative to control; assay type: functional; set-up: scale not given: the % may be the effect or the level left; conditions: time 10 day
Staphylococcus aureus [20] = test: Induction of cell membrane disruption in Staphylococcus aureus assessed as PI uptake at 2 to 4 times MIC measured after 120 mins by PI staining based flow cytometry analysis; assay type: functional, organism-based
Staphylococcus aureus [21] = test: Antibacterial activity against methicillin resistant Staphylococcus aureus infected in male BALB/c mouse model of skin wound infection assessed as healthy development of hair follicles at 2 mg/kg, ip measured after 10 days post infection; assay type: functional, organism-based; conditions: time 10.0 day
Staphylococcus aureus [22] = test: Antibacterial activity against methicillin resistant Staphylococcus aureus infected in male BALB/c mouse model of skin wound infection assessed as healthy development of sebaceous glands at 2 mg/kg, ip measured after 10 days post infection; assay type: functional, organism-based; conditions: time 10.0 day
Staphylococcus aureus [23] = test: Induction of morphological changes in Staphylococcus aureus assessed as cell aggregation adhesion at 2 times MIC measured after 120 mins by SEM analysis; assay type: functional, organism-based
Staphylococcus aureus [24] = test: Antibacterial activity against methicillin resistant Staphylococcus aureus infected in male BALB/c mouse model of skin wound infection assessed as appearance of intact structure of stratum corneum at 2 mg/kg, ip measured after 10 days post infection; assay type: functional, organism-based; conditions: time 10.0 day
Staphylococcus aureus [25] = test: Bactericidal activity against Staphylococcus aureus 25923 assessed as eradication of bacteria at 2 times MIC measured after 6 hrs by time-kill assay; assay type: functional, organism-based

SMILES	MIC (Enterococcus faecalis) [µM]	MIC (Klebsiella pneumoniae) [µM]	MIC (Bacillus subtilis) [µM]	MIC (Staphylococcus aureus [1]) [µM]	MIC [2] [µM]	MIC (Acinetobacter baumannii [3]) [µM]	MIC (Pseudomonas aeruginosa [4]) [µM]	MIC (Escherichia coli [5]) [µM]	MIC (Pseudomonas aeruginosa [8]) [µM]	MIC (Staphylococcus aureus [9]) [µM]	MIC (Acinetobacter baumannii [10]) [µM]	MIC (Escherichia coli [11]) [µM]	MIC (Escherichia coli [12]) [µM]	MIC (Staphylococcus aureus [13]) [µM]	MIC (Staphylococcus aureus [14]) [µM]	MIC (Staphylococcus aureus [15]) [µM]	MIC (Staphylococcus aureus [16]) [µM]	MIC (Acinetobacter baumannii [17]) [µM]	MIC (Pseudomonas aeruginosa [18]) [µM]	other results
CCCCCCCCCCCC(=O)NCCCC[C@H](NC(=O)CCCCCCCCCCC)C(=O)N[C@@H](CCCCN)C(=O)N[C@@H](CCCCN)C(=O)N[C@@H](Cc1c[nH]c2ccccc12)C(=O)N[C@@H](Cc1c[nH]c2ccccc12)C(N)=O (Lauroyl-K(Lauroyl)KKWW-NH2)	128 (≈ 146 µg/mL)	128 (≈ 146 µg/mL)	128 (≈ 146 µg/mL)	128 (≈ 146 µg/mL)	128 (≈ 146 µg/mL)	128 (≈ 146 µg/mL)	128 (≈ 146 µg/mL)	128 (≈ 146 µg/mL)	–	–	–	–	–	–	–	–	–	–	–	–
CCCCCCCCCCCCCC(=O)NCCCC[C@H](NC(=O)CCCCCCCCCCCCC)C(=O)N[C@@H](CCCCN)C(=O)N[C@@H](CCCCN)C(=O)N[C@@H](Cc1c[nH]c2ccccc12)C(=O)N[C@@H](Cc1c[nH]c2ccccc12)C(N)=O (Myristoyl-K(Myristoyl)KKWW-NH2)	128 (≈ 153 µg/mL)	128 (≈ 153 µg/mL)	128 (≈ 153 µg/mL)	128 (≈ 153 µg/mL)	128 (≈ 153 µg/mL)	128 (≈ 153 µg/mL)	128 (≈ 153 µg/mL)	128 (≈ 153 µg/mL)	–	–	–	–	–	–	–	–	–	–	–	–
CCCCCCCCCCCCCC(=O)N[C@@H](CCCCN)C(=O)N[C@@H](CCCCN)C(=O)N[C@@H](Cc1c[nH]c2ccccc12)C(=O)N[C@@H](Cc1c[nH]c2ccccc12)C(N)=O (Myristoyl-KKWW-NH2)	8 (≈ 6.85 µg/mL)	32 (≈ 27.4 µg/mL)	2 (≈ 1.71 µg/mL)	4 (≈ 3.42 µg/mL)	4 (≈ 3.42 µg/mL)	32 (≈ 27.4 µg/mL)	16 (≈ 13.7 µg/mL)	32 (≈ 27.4 µg/mL)	–	–	–	–	–	–	–	–	–	–	–	Activity (Cell membrane [6]): Active; Compound Showed Similar Effect As Quality Control Polymyxin B; Activity (Cell membrane [7]): Active
CCCCCCCC(=O)N[C@@H](CCCCN)C(=O)N[C@@H](CCCCN)C(=O)N[C@@H](Cc1c[nH]c2ccccc12)C(=O)N[C@@H](Cc1c[nH]c2ccccc12)C(N)=O (Octanoyl-KKWW-NH2)	128 (≈ 98.8 µg/mL)	128 (≈ 98.8 µg/mL)	4 (≈ 3.09 µg/mL)	32 (≈ 24.7 µg/mL)	32 (≈ 24.7 µg/mL)	128 (≈ 98.8 µg/mL)	16 (≈ 12.4 µg/mL)	64 (≈ 49.4 µg/mL)	–	–	–	–	–	–	–	–	–	–	–	–
CC(=O)OCC1=C(C(=O)O)N2C(=O)[C@@H](NC(=O)Cc3cccs3)[C@H]2SC1 [CEPHALOTHIN]	4 (≈ 1.59 µg/mL)	16 (≈ 6.34 µg/mL)	1 (≈ 0.396 µg/mL)	1 (≈ 0.396 µg/mL)	1 (≈ 0.396 µg/mL)	32 (≈ 12.7 µg/mL)	16 (≈ 6.34 µg/mL)	1 (≈ 0.396 µg/mL)	16 (≈ 6.34 µg/mL)	1 (≈ 0.396 µg/mL)	128 (≈ 50.7 µg/mL)	8 (≈ 3.17 µg/mL)	1 (≈ 0.396 µg/mL)	128 (≈ 50.7 µg/mL)	128 (≈ 50.7 µg/mL)	128 (≈ 50.7 µg/mL)	8 (≈ 3.17 µg/mL)	128 (≈ 50.7 µg/mL)	128 (≈ 50.7 µg/mL)	–
COc1cccc(OC)c1C(=O)N[C@@H]1C(=O)N2[C@@H]1SC(C)(C)[C@@H]2C(=O)O [METHICILLIN]	128 (≈ 48.7 µg/mL)	128 (≈ 48.7 µg/mL)	2 (≈ 0.761 µg/mL)	1 (≈ 0.38 µg/mL)	4 (≈ 1.52 µg/mL)	128 (≈ 48.7 µg/mL)	128 (≈ 48.7 µg/mL)	128 (≈ 48.7 µg/mL)	128 (≈ 48.7 µg/mL)	2 (≈ 0.761 µg/mL)	128 (≈ 48.7 µg/mL)	128 (≈ 48.7 µg/mL)	128 (≈ 48.7 µg/mL)	128 (≈ 48.7 µg/mL)	128 (≈ 48.7 µg/mL)	128 (≈ 48.7 µg/mL)	8 (≈ 3.04 µg/mL)	128 (≈ 48.7 µg/mL)	128 (≈ 48.7 µg/mL)	–
CN[C@@H]1[C@H](O[C@H]2[C@H](O[C@H]3[C@H](O)[C@@H](O)[C@H](N=C(N)N)[C@@H](O)[C@@H]3N=C(N)N)O[C@@H](C)[C@]2(O)C=O)O[C@@H](CO)[C@H](O)[C@H]1O [STREPTOMYCIN]	16 (≈ 9.31 µg/mL)	1 (≈ 0.582 µg/mL)	1 (≈ 0.582 µg/mL)	1 (≈ 0.582 µg/mL)	1 (≈ 0.582 µg/mL)	64 (≈ 37.2 µg/mL)	2 (≈ 1.16 µg/mL)	4 (≈ 2.33 µg/mL)	2 (≈ 1.16 µg/mL)	128 (≈ 74.4 µg/mL)	128 (≈ 74.4 µg/mL)	32 (≈ 18.6 µg/mL)	128 (≈ 74.4 µg/mL)	128 (≈ 74.4 µg/mL)	64 (≈ 37.2 µg/mL)	64 (≈ 37.2 µg/mL)	128 (≈ 74.4 µg/mL)	128 (≈ 74.4 µg/mL)	4 (≈ 2.33 µg/mL)	–
CN[C@H](CC(C)C)C(=O)N[C@H]1C(=O)N[C@@H](CC(N)=O)C(=O)N[C@H]2C(=O)N[C@H]3C(=O)N[C@H](C(=O)N[C@H](C(=O)O)c4cc(O)cc(O)c4-c4cc3ccc4O)[C@H](O)c3ccc(c(Cl)c3)Oc3cc2cc(c3O[C@@H]2O[C@H](CO)[C@@H](O)[C@H](O)[C@H]2O[C@H]2C[C@](C)(N)[C@H](O)[C@H](C)O2)Oc2ccc(cc2Cl)[C@H]1O [VANCOMYCIN]	–	–	–	–	–	–	–	–	–	–	–	–	–	–	–	–	–	–	–	Activity (Staphylococcus aureus [19]): <20%; Activity (Staphylococcus aureus [20]): inactive; Activity (Staphylococcus aureus [21]): Active; Activity (Staphylococcus aureus [22]): Active; Activity (Staphylococcus aureus [23]): inactive; Activity (Staphylococcus aureus [24]): Active; Activity (Staphylococcus aureus [25]): inactive
